The OPERA property sets (Mansouri et al. 2018)
In brackets after ≈: the same amount, converted by molar mass.

Settings: 25 °C

Compound	solubility [mM]
CCC(C(=O)O)C(=O)O	5390 (≈ 712000 µg/mL)
CC(=O)[C@@]1(C)CC[C@H]2[C@@H]3C=C(C)C4=CC(=O)CC[C@]4(C)[C@H]3CC[C@@]21C	0.00534 (≈ 1.82 µg/mL)
CC(C)CCBr	1.3 (≈ 196 µg/mL)
Fc1cccc(Br)c1	2.16 (≈ 378 µg/mL)
C#CCCCC#C	17.5 (≈ 1610 µg/mL)
CCCC(C)(C)C	0.0439 (≈ 4.4 µg/mL)
Clc1cc(Cl)c(Cl)c(Cl)c1	0.0236 (≈ 5.1 µg/mL)
C[C@@H](O)C(N)=O	8780 (≈ 782000 µg/mL)
CCCCc1c(C)nc(N(C)C)nc1O	5.73 (≈ 1200 µg/mL)
CCOC(=S)SSC(=S)OCC	0.0114 (≈ 2.76 µg/mL)
Clc1cc(Cl)cc(-c2cc(Cl)cc(Cl)c2)c1	4.22e-06 (≈ 0.00123 µg/mL)
Fc1cc(F)c(F)c(F)c1	4.95 (≈ 742 µg/mL)
ClCC1CO1 (stereo not given)	712 (≈ 65900 µg/mL)
C[C@]12CCc3c(ccc4cc(O)ccc34)[C@@H]1CCC2=O	0.00571 (≈ 1.52 µg/mL)
C=CCBr	31.7 (≈ 3830 µg/mL)
CCC(C)C(C)C (stereo not given)	0.0524 (≈ 5.25 µg/mL)
C1=CCCC1	7.85 (≈ 535 µg/mL)
O=C(O)c1ccccc1[N+](=O)[O-]	47 (≈ 7850 µg/mL)
CC(=O)C(C)(C)C	190 (≈ 19000 µg/mL)
Cc1c[nH]c(=S)[nH]c1=O	3.58 (≈ 509 µg/mL)
CCCCC(C)CC (stereo not given)	0.00693 (≈ 0.792 µg/mL)
C(=C\c1ccccc1)/c1ccccc1	0.00161 (≈ 0.291 µg/mL)
Ic1ccc(I)cc1	0.00424 (≈ 1.4 µg/mL)
O=C1C(Cl)=C(Cl)C(=O)C(Cl)=C1Cl	1.02 (≈ 250 µg/mL)
c1ccc2c(c1)Cc1cc3ccccc3cc1-2	1.1e-05 (≈ 0.00238 µg/mL)

Compound	solubility [mM]
CCC[C@@H](O)CC	158 (≈ 16100 µg/mL)
C[C@]12CC[C@H](O)CC1=CC[C@@H]1[C@@H]2CC[C@]2(C)C(=O)CC[C@@H]12	0.129 (≈ 37.2 µg/mL)
Clc1ccc(-c2cc(Cl)ccc2Cl)cc1	0.000555 (≈ 0.143 µg/mL)
c1ccc(Cc2ccccc2)cc1	0.0838 (≈ 14.1 µg/mL)
CC(C)(C)CC(=O)OCC(=O)[C@@]1(O)CC[C@H]2[C@@H]3CCC4=CC(=O)CC[C@]4(C)[C@H]3[C@@H](O)C[C@@]21C	0.00308 (≈ 1.42 µg/mL)
O=C1NCCN1c1ncc([N+](=O)[O-])s1	0.607 (≈ 130 µg/mL)
Cc1ccccc1O	239 (≈ 25900 µg/mL)
OCc1ccccc1	370 (≈ 40000 µg/mL)
CC(=O)OCC(C)C	54.2 (≈ 6300 µg/mL)
CCCCCCCC=O	4.37 (≈ 560 µg/mL)
CCCCCCCCCCCCCC(=O)O	0.00468 (≈ 1.07 µg/mL)
CC(=O)[C@@]1(O)CC[C@H]2[C@@H]3C[C@H](C)C4=CC(=O)C=C[C@]4(C)[C@@]3(F)[C@@H](O)C[C@@]21C	0.0797 (≈ 30 µg/mL)
CCCCC(C)C	0.0253 (≈ 2.54 µg/mL)
CNc1ccccc1	52.4 (≈ 5620 µg/mL)
Cc1cccc2ccccc12	0.181 (≈ 25.8 µg/mL)
CCC1(C2=C[C@H]3CC[C@@H](C2)C3)C(=O)NC(=O)NC1=O	1.7 (≈ 446 µg/mL)
CCCC(C)O (stereo not given)	506 (≈ 44600 µg/mL)
CCSCCSP(=S)(OC)OC	0.812 (≈ 200 µg/mL)
NCC[C@H](O)C(=O)N[C@@H]1C[C@H](N)[C@@H](O[C@H]2O[C@H](CN)[C@@H](O)[C@H](O)[C@H]2O)[C@H](O)[C@H]1O[C@H]1O[C@H](CO)[C@@H](O)[C@H](N)[C@H]1O	316 (≈ 185000 µg/mL)
c1cnc2c(c1)ccc1cccnc12	14.9 (≈ 2690 µg/mL)
C#C[C@]1(OC(C)=O)CC[C@H]2[C@@H]3CCC4=CC(=O)CC[C@@H]4[C@H]3CC[C@@]21C	0.0161 (≈ 5.47 µg/mL)
Cc1cccc2c1Cc1ccccc1-2	0.00605 (≈ 1.09 µg/mL)
NCCCCCC(=O)O	3850 (≈ 505000 µg/mL)
CCC1(C2=CCCCCC2)C(=O)NC(=O)NC1=O	0.999 (≈ 250 µg/mL)
C=CCC1(CC(C)C)C(=O)NC(=O)NC1=O	7.6 (≈ 1700 µg/mL)

Compound	solubility [mM]
COP(=S)(NC(C)C)Oc1ccc(Cl)cc1Cl (stereo not given)	0.0159 (≈ 5 µg/mL)
Cc1ccc2cc3ccccc3cc2c1	0.000111 (≈ 0.0213 µg/mL)
Clc1ccccc1-c1c(Cl)cc(Cl)c(Cl)c1Cl	3.68e-05 (≈ 0.012 µg/mL)
Cc1ccc(S(N)(=O)=O)cc1	18.4 (≈ 3160 µg/mL)
CCC(C)(C)CO	74.4 (≈ 7600 µg/mL)
ClCCCBr	14.2 (≈ 2240 µg/mL)
Cc1ccc(C)c(O)c1	29 (≈ 3540 µg/mL)
COc1ccc2c(c1)c(CC(=O)O)c(C)n2C(=O)c1ccc(Cl)cc1	0.00262 (≈ 0.937 µg/mL)
Clc1cccc(Cl)c1-c1ccccc1	0.0108 (≈ 2.41 µg/mL)
Clc1cc(Cl)c(-c2ccccc2)c(Cl)c1	0.000978 (≈ 0.252 µg/mL)
c1ccsc1	35.8 (≈ 3010 µg/mL)
C=CCC(C)C	0.57 (≈ 48 µg/mL)
CCC(C)(C)c1ccccc1	0.0708 (≈ 10.5 µg/mL)
Cc1cnc2c(ccc3c(C)c(C)cnc32)c1C	0.00639 (≈ 1.51 µg/mL)
Nc1ncnc2[nH]cnc12	7.62 (≈ 1030 µg/mL)
COP(=O)(OC)OC	3570 (≈ 500000 µg/mL)
CC(C)(C)C(=O)OCC(=O)[C@@]1(O)CC[C@H]2[C@@H]3CCC4=CC(=O)C=C[C@]4(C)[C@H]3[C@@H](O)C[C@@]21C	0.0261 (≈ 11.6 µg/mL)
O=c1cc[nH]c(=S)[nH]1	5.53 (≈ 709 µg/mL)
COC(=O)C(=O)OC	511 (≈ 60300 µg/mL)
C1CCCNCC1	1710 (≈ 170000 µg/mL)
O=C(O)c1cc(Cl)ccc1[N+](=O)[O-]	48 (≈ 9670 µg/mL)
CC(C)C(C)C	0.261 (≈ 22.5 µg/mL)
CCOc1ccccc1	4.66 (≈ 569 µg/mL)
O=C(O)c1cccc(F)c1	10.7 (≈ 1500 µg/mL)

Same assay, conditions: 27 °C

Compound	solubility [mM]
c1cc2c3c(c1)ccc1cccc(c13)C2	0.00578 (≈ 1.1 µg/mL)
CCCCOC=O	74 (≈ 7560 µg/mL)

Same assay, conditions: 30 °C

Compound	solubility [mM]
CCCCn1c(=O)c2c(ncn2C)n(C)c1=O	23.7 (≈ 5600 µg/mL)
CC1=CC(=O)c2ccccc2C1=O	0.929 (≈ 160 µg/mL)
COc1ccccc1C(=O)O	32.9 (≈ 5000 µg/mL)
CN(C)CCN(Cc1cccs1)c1ccccn1	2.3 (≈ 601 µg/mL)
